Legend:
diabetic fibroblasts = assay: Inflammatory cytokine release by fibroblasts, ELISA; assay type: cell-based, rat; conditions: lipoic acid 500 μM, Nrf2-dependent
Text: To determine the effect of α-lipoic acid on isolated cells from normal and diabetic rats, primary rat fibroblasts were derived from dorsal skin biopsies performed on four diabetic Coto Kakizaki rats (DFs) and four age-matched (12-14 months) and sex-matched (female) Wistar control rats (CFs). After sterilization in povidine solution, the rat skin was washed in sterile water and rinsed in 70% ethanol in phosphate-buffered saline (PBS). The epidermis and dermis were separated following overnight incubation in 0.25% Trypsin/EDTA at 4° C. Samples were washed, diced and digested for thirty minutes at 37° C. in collagenase type I (250 U/ml) dissolved in Dulbecco's modified Eagle medium (DMEM; Invitrogen) containing penicillin (100 U/ml), 2 mM L-glutamine and 26 mM HEPES. After collagenase treatment, the cells were dislodged, centrifuged and resuspended in medium supplemented with 10% fetal bovine serum. […]
With regard to ELISA assays to determine cytokine expression levels, control and diabetic fibroblasts were seeded on a 6-well plate at 2.5×10^5 cells/well. […] After incubation for 16 hr, supernatants were collected and analyzed for key inflammatory cytokines, including TNF-α, IL-1β, fractalkine and monocyte chemoattractant protein-1 (MCP-1) using commercially available ELISA kits specific for rats and according to the protocols provided by the manufacturers (R&D and Ray Biotech). […]

gp 91^phox = assay: Aortic mRNA expression by real-time PCR, gp 91phox; assay type: in vivo, rat; conditions: aorta of LA-treated GK rats
Description: Further, with regard to quantitative real-time polymerase chain reactions (PCR) in the study, total RNA from the arterial samples was isolated using TRIZOL® reagent, and RNA integrity was verified by agarose gel electrophoresis and quantified by spectrophotometry. Reverse transcription reaction of total RNA (5 μg) was performed using a superscript 111 first-strand synthesis system. Quantitative real-time PCR was performed using fast SYBR Green QPCR. […]
The housekeeping gene beta-actin was used for internal normalization. Fidelity of the PCR reaction was determined by melting temperature analysis. PCR efficiency for each primer pair was determined by quantitating amplification with increasing concentration of template cDNA. […] RNA expression of target genes was calculated based on the real-time PCR efficiency E and the threshold crossing point (CP) and is expressed relative to the reference gene beta-actin.

rat aortic rings = assay: Acetylcholine-induced endothelium dependent relaxation of aortic rings in organ chamber; assay type: in vivo; conditions: GK diabetic rats
Description: In the experiments, with regard to the determination of endothelium dependent relaxation (EDR) in the aorta, EDR in response to various concentrations of acetylcholine (Ach) (10^−9 to 10^−6 mol/l) was assessed in norepinephrine (10^−7 mol/l) preconstructed rat aortic rings using an organ chamber bath. The effects of the NAD(P)H oxidase inhibitor apocynin (3×10^−4 mol/l) and the O2^− scavenger Tiron (10 mmol/l) on Ach-induced responses of diabetic arteries were also considered.

[1] = test system: thiobarbituric acid reactive substances; assay: Aortic content of TBARS (lipid peroxidation); assay type: in vivo, rat; conditions: aorta of LA-treated GK rats
Description: With regard to lipid peroxidation, aortic tissues were homogenized in ice-cold tris-hydrochloric acid/buffer (pH 7.4) and butylated hydroxytoluene (BHT). Homogenates were centrifuged at 3,000×g at 4° C. for 10 min. An aliquot of the supernatant was combined with N-methyl-2-phenylindol (10.3) mmol/l in acetonitrile and methanol in the presence of methane sulfonic acid and BHT and the amount of malondialdehyde and 4-hydroxy-2-nonenal was assessed.

aortic tissues = assay: Apoptotic cell death ELISA, cytoplasmic histone-associated DNA fragments in aorta; assay type: in vivo, rat
Description: With regard to the assessment of apoptotic cell death using enzyme-linked immuno-absorbent-based assay, aortic tissues derived from control, GK and LA-treated GK rats were lysed and cytoplasmic histone-associated DNA fragments, indicating apoptotic cell death were determined by the Cell Death ELISA® plus kit. Data are reported as arbitrary optical density units normalized to protein concentration.

protein-bound carbonyls = assay: Aortic content of protein-bound carbonyls; conditions: aorta of LA-treated GK rats

O=C(O)CCCCC1CCSS1 (stereo not drawn) [LA, alpha-lipoic acid]
release of inflammatory cytokines by diabetic fibroblasts (diabetic fibroblasts): ameliorated
rate of gene expression of pg 91^phox subunit (gp 91^phox): tended to reduce
decline in acetylcholine (Ach)-induced relaxation of rat aorta (rat aortic rings; LA 50 mg/kg i.p. daily for four weeks): ameliorated
beneficial effect on Ach-induced relaxation after discontinuation (rat aortic rings; two weeks after discontinuation of LA): not evident
oxidative stress-mediated damage to lipid (TBARS) [1]: partially reversed
reduction of DNA fragmentation rate in diabetic arteries (aortic tissues; chronic LA treatment, GK rats): 42%
LA-mediated antiapoptotic effect after discontinuation (aortic tissues; two weeks after discontinuation of therapy): markedly reduced
oxidative stress-mediated damage to protein (protein-bound carbonyls) (protein-bound carbonyls): partially reversed
